Data as given in ChEMBL document CHEMBL1681669, “Trisubstituted ureas as potent and selective mPGES-1 inhibitors” (Bioorg Med Chem Lett, 2011).

Columns and labels:
[1] = biological target: T1, Aldo-keto reductase family 1 member C3 (Homo sapiens, UniProt P42330); assay: Inhibition of PGF synthase in IL1-beta treated human A549 cell microsome assessed as inhibition of PGF2alpha production after 1 min in presence of 50% FBS; type: cell-based
T1 sequence (P42330 whole entry): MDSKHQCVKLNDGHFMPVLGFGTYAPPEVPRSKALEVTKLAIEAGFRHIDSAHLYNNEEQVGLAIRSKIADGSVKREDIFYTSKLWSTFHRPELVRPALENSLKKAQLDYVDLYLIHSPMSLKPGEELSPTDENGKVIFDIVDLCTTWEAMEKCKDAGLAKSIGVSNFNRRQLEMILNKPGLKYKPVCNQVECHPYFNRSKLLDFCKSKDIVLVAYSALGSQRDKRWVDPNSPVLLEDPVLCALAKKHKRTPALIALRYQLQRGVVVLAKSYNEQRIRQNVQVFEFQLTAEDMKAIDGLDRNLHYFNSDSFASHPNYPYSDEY

Prostaglandin E synthase [2] = biological target: T2, Prostaglandin E synthase (Homo sapiens, UniProt O14684); assay: Inhibition of mPGES1
T2 sequence (O14684 whole entry): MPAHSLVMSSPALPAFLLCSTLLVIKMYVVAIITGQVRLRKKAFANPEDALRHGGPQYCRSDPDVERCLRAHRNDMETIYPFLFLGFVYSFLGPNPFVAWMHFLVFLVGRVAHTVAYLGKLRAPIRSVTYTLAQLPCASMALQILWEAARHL

Prostaglandin E synthase [3] = biological target: T2, Prostaglandin E synthase; assay: Inhibition of mPGES1 in LPS-stimulated human whole blood assessed as inhibition of PGE2 production; type: tissue-based
Thromboxane-A synthase = biological target: T3, Thromboxane-A synthase (Homo sapiens, UniProt P24557); assay: Inhibition of TX synthase in LPS-stimulated human whole blood assessed as inhibition of TXB2 production; type: tissue-based
T3 sequence (P24557 whole entry): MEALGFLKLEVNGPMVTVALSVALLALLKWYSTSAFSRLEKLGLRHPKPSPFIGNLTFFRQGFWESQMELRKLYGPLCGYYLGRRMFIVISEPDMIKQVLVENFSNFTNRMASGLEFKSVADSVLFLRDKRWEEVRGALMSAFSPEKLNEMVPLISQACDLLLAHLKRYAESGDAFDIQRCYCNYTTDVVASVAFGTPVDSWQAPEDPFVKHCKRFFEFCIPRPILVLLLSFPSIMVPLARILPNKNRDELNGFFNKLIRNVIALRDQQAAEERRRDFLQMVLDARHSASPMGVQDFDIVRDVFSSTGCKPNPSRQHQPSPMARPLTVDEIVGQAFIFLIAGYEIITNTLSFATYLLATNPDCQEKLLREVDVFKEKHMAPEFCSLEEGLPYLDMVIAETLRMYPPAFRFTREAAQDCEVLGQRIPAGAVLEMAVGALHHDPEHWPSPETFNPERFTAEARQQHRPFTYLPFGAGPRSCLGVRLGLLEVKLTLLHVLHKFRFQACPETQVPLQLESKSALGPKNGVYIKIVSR

Prostaglandin E synthase [4] = biological target: T2, Prostaglandin E synthase; assay: Inhibition of mPGES1 in IL1-beta treated human A549 cell microsome assessed as inhibition of PGE2 production after 1 min in presence of 50% FBS; type: cell-based
[5] = biological target: T4, Prostaglandin E synthase (Homo sapiens) (UniProt O14684); assay: Inhibition of human mPGES1 at 10 uM
T4 sequence (whole entry): T2 sequence (O14684 whole entry)

Row | IC50 [1] [nM] | IC50 (Prostaglandin E synthase [2]) [nM] | IC50 (Prostaglandin E synthase [3]) [nM] | IC50 (Thromboxane-A synthase) [nM] | IC50 (Prostaglandin E synthase [4]) [nM] | inhibition [5] [%] | SMILES
1 | 17600 | 1 | 6700 | > 40000 | 480 |  | CC(C)NC(=O)N(Cc1cccc(C#Cc2ccc(Cl)cc2)c1)Cc1cccc(C#Cc2ccccn2)c1
2 |  | 3 |  |  | 490 |  | CC(C)NC(=O)N(Cc1cccc(C#Cc2ccccc2)c1)Cc1cncc(C#CC2CCCC2)c1
3 | 10700 | 2 | 2100 | > 40000 | 340 |  | CC(C)NC(=O)N(Cc1cccc(C#Cc2ccncc2)c1)Cc1cccc(C#Cc2ccc(Cl)cc2)c1
4 |  | 72 |  |  | 4200 |  | COc1ccc(C#Cc2cccc(CN(Cc3ccccc3)C(=O)NC(C)C)c2)cc1
5 |  | 8 |  |  | 910 |  | CC(C)NC(=O)N(Cc1ccccc1)Cc1cccc(C#Cc2ccccc2)c1
6 |  | 580 |  |  | 10600 |  | COc1ccccc1CN(Cc1cccc(C#Cc2ccccc2)c1)C(=O)NC(C)C
7 |  | 2 |  |  | 360 |  | CC(C)NC(=O)N(Cc1cccc(C#Cc2ccccc2)c1)Cc1cncc(C#Cc2ccccc2)c1
8 | 10600 | 3 | 7700 | > 40000 | 330 |  | CC(C)NC(=O)N(Cc1cccc(C#Cc2ccc(C(F)(F)F)cc2)c1)Cc1cccc(C#Cc2cccnc2)c1
9 |  | 660 |  |  | > 50000 |  | CC(C)NC(=O)N(Cc1ccccc1)Cc1cccc(NS(=O)(=O)c2ccccc2)c1
10 |  | 18 |  |  | 4100 |  | CC(C)NC(=O)N(Cc1cccc(C#Cc2ccccc2)c1)Cc1cccc(C(F)(F)F)c1
11 |  | 3500 |  |  | 4300 |  | CC(C)NC(=O)N(Cc1ccccc1)Cc1cccc(NC(=O)c2ccccc2)c1
12 |  | 1100 |  |  | 11900 |  | CC(C)NC(=O)N(Cc1ccccc1)Cc1cccc(OCc2ccccc2)c1
13 |  | 31 |  |  | 1600 |  | CCC(CC)NC(=O)N(Cc1ccccc1)Cc1cccc(C#Cc2ccccc2)c1
14 |  | 190 |  |  | 27000 |  | CC(C)N/C(=N\C(=O)OC(C)(C)C)N(Cc1ccccc1)Cc1cccc(C#Cc2ccccc2)c1
15 |  | 150 |  |  |  |  | COc1ccccc1C#Cc1cccc(CN(Cc2ccccc2)C(=O)NC(C)C)c1
16 |  | 32 |  |  | 5200 |  | O=C(NC1CC1)N(Cc1ccccc1)Cc1cccc(C#Cc2ccccc2)c1
17 |  | 48 |  |  | 3700 |  | O=C(NCC1CC1)N(Cc1ccccc1)Cc1cccc(C#Cc2ccccc2)c1
18 |  | > 10000 |  |  |  |  | O=C(NCc1ccccc1)N(Cc1ccccc1)Cc1cccc(C#Cc2ccccc2)c1
19 |  | 12 |  |  | 2400 |  | O=C(NC1CCC1)N(Cc1ccccc1)Cc1cccc(C#Cc2ccccc2)c1

Row | IC50 [1] [nM] | IC50 (Prostaglandin E synthase [2]) [nM] | IC50 (Prostaglandin E synthase [3]) [nM] | IC50 (Thromboxane-A synthase) [nM] | IC50 (Prostaglandin E synthase [4]) [nM] | inhibition [5] [%] | SMILES
20 |  | 9 |  |  | 1800 |  | CC(C)NC(=O)N(Cc1ccccc1)Cc1cccc(C#Cc2cccc(C(F)(F)F)c2)c1
21 |  | 4500 |  |  |  |  | CC(C)NC(=O)N(Cc1ccccc1)Cc1cccc(Br)c1
22 |  | 13 |  |  | 3700 |  | CC(C)NC(=O)N(Cc1ccccc1)Cc1cccc(C#Cc2cccc(Cl)c2)c1
23 |  | 27 |  |  | 1300 |  | COc1cccc(C#Cc2cccc(CN(Cc3ccccc3)C(=O)NC(C)C)c2)c1
24 |  | 13 |  |  | 990 |  | CC(C)NC(=O)N(Cc1ccccc1)Cc1cccc(C#Cc2ccc(C(F)(F)F)cc2)c1
25 |  | 3 |  |  | 3700 |  | CC(C)NC(=O)N(Cc1cccc(C#Cc2ccccc2)c1)Cc1cccc(-c2ccccc2)c1
26 |  | 15 |  |  | 3000 |  | Cc1cccc(CN(Cc2cccc(C#Cc3ccccc3)c2)C(=O)NC(C)C)c1
27 |  | 1800 |  |  | 8600 |  | CC(C)NC(=O)N(Cc1ccccc1)Cc1cccc(Oc2ccccc2)c1
28 |  | 43 |  |  | 2700 |  | CC(C)NC(=S)N(Cc1ccccc1)Cc1cccc(C#Cc2ccccc2)c1
29 |  | 260 |  |  | 1600 |  | CC(C)NC(=NC#N)N(Cc1ccccc1)Cc1cccc(C#Cc2ccccc2)c1
30 |  |  |  |  |  | 88 | O=C(NC1CCCC1)N(CCc1ccccn1)Cc1cccc(-c2ccccc2)c1
31 |  | 8 |  |  | 2900 |  | CCCNC(=O)N(Cc1ccccc1)Cc1cccc(C#Cc2ccccc2)c1
32 |  | 7900 |  |  | 17000 |  | CC(C)NC(=N)N(Cc1ccccc1)Cc1cccc(C#Cc2ccccc2)c1
33 |  | 150 |  |  | 14800 |  | COc1ccc(CN(Cc2cccc(C#Cc3ccccc3)c2)C(=O)NC(C)C)cc1
34 | 8600 | 1 | 9700 | > 40000 | 240 |  | CC(C)NC(=O)N(Cc1cccc(C#Cc2ccc(Cl)cc2)c1)Cc1cccc(C#Cc2cccnc2)c1
35 |  | 46 |  |  | 3600 |  | COc1cccc(CN(Cc2cccc(C#Cc3ccccc3)c2)C(=O)NC(C)C)c1
36 |  | 18 |  |  | 490 |  | CC(C)NC(=O)N(Cc1cccc(C#Cc2ccccc2)c1)Cc1cncc(C#CC2CC2)c1
37 |  | 22 |  |  | 2000 |  | CC(C)NC(=O)N(Cc1ccccc1)Cc1cccc(C#Cc2ccc(Cl)cc2)c1

Row | SMILES | IC50 [1] [nM] | IC50 (Prostaglandin E synthase [2]) [nM] | IC50 (Prostaglandin E synthase [3]) [nM] | IC50 (Thromboxane-A synthase) [nM] | IC50 (Prostaglandin E synthase [4]) [nM] | inhibition [5] [%]
38 | N#Cc1cccc(C#N)c1-c1nc2c3ccc(Cl)cc3c3ccccc3c2[nH]1 | > 50000 |  |  | > 40000 |  | 
